Results on one molecule are retold here after publication PMC6450719 (Biochimica et biophysica acta. Proteins and proteomics, 2018).

The target of the test is T1, human islet amyloid polypeptide (hIAPP, amylin) (Homo sapiens, UniProt P10997).
T1 sequence (P10997 34-70 limits assumed): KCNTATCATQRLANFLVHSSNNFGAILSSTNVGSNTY
Description: ITC. The test is classed as binding.

As to `O=C(O[C@@H]1Cc2c(O)cc(O)cc2O[C@@H]1c1cc(O)c(O)c(O)c1)c1cc(O)c(O)c(O)c1` [EGCG], the Kd is about 1100 nM.
